Data as given in PubChem BioAssay AID849 (SRMLSC, 2007).
Active and inactive are the calls of the source. The rule behind the calls is not given here.

System: Saccharomyces cerevisiae lifespan shortening, growth inhibition
Experiment: Saccharomyces cerevisiae growth inhibition potency – dose response (AID 849);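 note: yeast growth read as optical density after two days at 30 degrees C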

`Fc1ccc(-c2ccc(-c3nn4c(-c5ccco5)nnc4s3)o2)cc1` was tested. Which IC50 did it give?
Its IC50 is > 100 µM (inactive).

With `COc1ccc(NCc2nc3ccccc3n2CCOc2ccc(C)cc2)cc1` as the compound, how does the IC50 read?
Its IC50 is 31.2 µM.

For `CC(=O)N1CCN(c2ccc(OC[C@H]3CO[C@](Cn4ccnc4)(c4ccc(Cl)cc4Cl)O3)cc2)CC1`, which IC50 is on record?
The IC50 was 9.27 µM.

For `Clc1ccc(N=c2ssnc2Cl)cc1`, which IC50 is on record?
Its IC50 is 25.6 µM.

With `CCCCSc1nc(C)c(C(C)=O)cc1C#N` as the compound, how does the IC50 read?
The IC50 was > 100 µM (inactive).

How did the IC50 turn out when `CCN1/C(=C/C=C/C=C/c2sc3ccccc3[n+]2CC)Sc2ccccc21` was run?
Its IC50 is 21.3 µM.

With `Cc1ccc(C(NC(=O)C(C)C)c2cc([N+](=O)[O-])c3cccnc3c2O)cc1` (stereo not drawn) as the compound, how does the IC50 read?
Its IC50 is 11.4 µM.

How did the IC50 turn out when `CCOCCCNC(=O)c1ccc(Br)cc1` was run?
The IC50 was > 100 µM (inactive).

With `N/C(Cc1ccc(Cl)cc1Cl)=N\OC(=O)c1cccs1` as the compound, how does the IC50 read?
Its IC50 is 0.78 µM.

With `CCCCCCCCCCn1c2c(c(=N)c3c1CCC3)CCC2` as the compound, how does the IC50 read?
The IC50 was 9.12 µM.

With `COc1ccc(OC)c(CCNC(=O)Cn2sc3nc(C)cc(C)c3c2=O)c1` as the compound, how does the IC50 read?
The IC50 was > 100 µM (inactive).

For `OCc1ccnc2c(O)cccc12`, which IC50 is on record?
The IC50 was > 100 µM (inactive).

`Cc1cc(C)nc(N/N=C/C2=C(N3CCOCC3)C(=C\c3ccc(Cl)cc3)/CC2)n1` was tested. Which IC50 did it give?
The IC50 was > 100 µM (inactive).

`O=c1cc(-c2ccccc2)[nH]n1-c1nc2ccccc2[nH]1` was tested. Which IC50 did it give?
The IC50 was 12.2 µM.

For `CCCc1ccc(Oc2cn[nH]c2-c2ccc(O)c(C)c2O)cc1`, which IC50 is on record?
The IC50 was 6.65 µM.

`CN1CCN(CC(=O)N2CCn3c4c(c5cc(C6CCCCC6)ccc53)CCCC42)CC1` (stereo not drawn) was tested. Which IC50 did it give?
Its IC50 is > 100 µM (inactive).

Which IC50 does the source give for `N/C(Cc1ccc(Cl)cc1)=N\OC(=O)c1ccccc1` here?
Its IC50 is 27.1 µM.

How did the IC50 turn out when `CCCCCCCCCCCCCCCC[n+]1ccc(/C=N/O)cc1` was run?
Its IC50 is 1.54 µM.

Which IC50 does the source give for `Cc1ccc(NC(=S)Nc2ccc(Cl)c(Cl)c2)c(OC(F)F)c1` here?
The IC50 was 22.2 µM.

With `O=[N+]([O-])c1cccc(/C=N/n2cnnc2)c1O` as the compound, how does the IC50 read?
Its IC50 is 19.7 µM.

For `Cc1nc2ccccc2c2c1C(=O)N(C)C2=O`, which IC50 is on record?
Its IC50 is 10.9 µM.

How did the IC50 turn out when `O=[N+]([O-])c1ccc(Cl)c(S(=O)(=O)N2CCCCCC2)c1` was run?
Its IC50 is 37.4 µM.

How did the IC50 turn out when `Cc1ccc(NC(=O)ON=C2CCCC2)cc1` was run?
Its IC50 is 9.19 µM.

With `CC(=O)NC(CCS(C)(=O)=O)C(=O)Nc1ccc2c(c1)OCO2` (stereo not drawn) as the compound, how does the IC50 read?
The IC50 was > 100 µM (inactive).

With `COc1ccccc1NC(=O)Cc1noc(CSc2cccc[n+]2[O-])n1` as the compound, how does the IC50 read?
Its IC50 is 23.2 µM.

For `Cc1ccc(C(=O)CSC2=NC(N)=C(C#N)C3(CCCCC3)C2C(N)=O)cc1` (stereo not drawn), which IC50 is on record?
Its IC50 is > 100 µM (inactive).

For `Clc1ccc(COC(Cn2ccnc2)c2ccc(Cl)cc2Cl)c(Cl)c1` (stereo not drawn), which IC50 is on record?
Its IC50 is < 0.098 µM.

Which IC50 does the source give for `Brc1ccccc1-c1nnc(CSc2nnc3sc4ccccc4n23)o1` here?
The IC50 was > 100 µM (inactive).

For `CCCCCCCCCCCCCCCC(O)C(N)CO` (stereo not drawn), which IC50 is on record?
The IC50 was 33.4 µM.

With `Oc1ccc(/C=C/c2nc(-c3ccccc3O)n(-c3ccccc3)n2)cc1` as the compound, how does the IC50 read?
The IC50 was > 100 µM (inactive).

How did the IC50 turn out when `c1ccc(Cc2nnc3sc(-c4ccco4)nn23)cc1` was run?
Its IC50 is > 100 µM (inactive).

With `Cc1cc(C(=O)COC(=O)c2ccc[nH]c2=O)c(C)n1-c1ccc(F)cc1` as the compound, how does the IC50 read?
The IC50 was 43 µM.

Which IC50 does the source give for `Cc1cc(C)cc(N=Cc2ccc([N+](=O)[O-])s2)c1` here?
Its IC50 is 13.1 µM.
